Reference: US20100240040A1, “METHOD FOR SCREENING FOR SELECTIVE MODULATOR OF THE NF-KB PATHWAY ACTIVATION” (INSTITUT PASTEUR, priority 2007, published 2010)
Where a SMILES comes first, the peptide text is derived from it. Where no end group is shown, it is not given here. The star is where a group is joined. BODIPYFLEthylmaleimide = Cc1cc(C)n2c1C=C1C=CC(CCC(=O)NCCN3C(=O)CC(*)C3=O)=[N+]1[B-]2(F)F; Bodipy = not defined here

Key:
spCC2-LZ (MOD of NEMO) = target: T1, spCC2-LZ (MOD of NEMO) (Mus musculus, UniProt O88522); assay: Fluorescence anisotropy binding of labelled peptide to spCC2-LZ; settings: labelled peptide 10 μM, increasing spCC2-LZ; read-out: dissociation constant for spCC2-LZ
T1 construct: spCC2-LZ, synthetic polypeptide subdomain CC2-LZ; made in house; host or cells: chemical synthesis
Procedure: Anisotropy measurements were performed with a QuantaMaster® fluorometer (PTI), equipped with polarizing filters for excitation and emission, and using a photomultiplier tube in the L-configuration. All experiments were carried out in a microcuvette (60 μl) at 22° C., with excitation and emission wavelengths at 495 and 513 nm. The band pass of the excitation and emission wavelengths was 2 and 4 nm, respectively. Steady-state fluorescence anisotropy, expressed as millianisotropy units was measured as described Agou et al., 2004a. All measurements were carried out in a 20 mM isoionic buffer pH 8 (10 mM acetic acide, 10 mM MES, 20 mM Tris), containing 20 mM KCl. Each data point is the result of 20 recording taken over a 2-min period. To analyse whether DR NLM binds the MOD of NEMO, fluorescent labelled BA-DR NLM (10 μM) was incubated with an increasing concentrations of spCC2-LZ and the complex formation was monitored by fluorescence polarization (P) and results are expressed as anisotropy (A) according to the formula A=2P/(3-P). The concentration of spCC2-LZ was determining by amino acid analysis (Vinolo et al; 2006). Data points were fitted to the binding isotherm equation which gives a dissociation constant of 17 μM.

[1] = target: T2, NEMO oligomers (Flag-NEMO/GFP-NEMO) (Mus musculus, UniProt O88522, A144V/E216G/P360T/S248N); assay: Inhibition of NEMO oligomerization in cells (GFP-NEMO/Flag-NEMO co-transfected 293T cells); assay type: cell-based, murine; settings: 20 μM peptide
T2 construct: expressed in transfected cells; host or cells: 293T (human embryonal kidney), transient co-transfection
Procedure: 293T cells were transiently co-transfected by calcium-phosphate-DNA precipitation method with 2 μg of a plasmid pcDNA3 (Invitrogen) containing the sequence of FLAG-NEMO (pcDNA3-Flag-NEMO of sequence SEQ ID NO: 24) and 0.7 μg of a plasmid pcDNA3 containing the sequence of GFP-NEMO (pcDNA3-GFP-NEMO of sequence SEQ ID NO: 26). Empty vector is added up to a total amount of DNA of 4 μg per 6 cm dish. 24 h after transfection, cells were resuspended and incubated with or without 20 μM of peptides (A-NLM or A-DR NLM) for 7 h at 37° C. Cells were resuspended and washed twice with PBS to remove excess peptides and lysed in 150 μl of lysis buffer containing a protease inhibitor mixture as indicated above (Example 1.D). Lysates were clarified at 15 000×g at 4° C. for 20 min. The amount of proteins in the clarified lysate is determined by the Bradford method with the kit DC Biorad. 100 μg of total proteins were diluted in 200 μl of interaction buffer (50 mM TrisHCl pH 7.5, 1% triton X100, 1 mM DTE, 300 mM NaCl) and incubated 1 h at 4° C. with 40 μl of agarose anti-Flag M2 beads (Sigma). The oligomers Flag-NEMO/GFP-NEMO were pulled down with the anti-Flag M2 beads and washed twice with the interaction buffer. The fluorescence of GFP-NEMO were directly read on the beads with a fluorescence microplate reader SAFAS and the clarified lysates were analysed by Western blotting using anti-Flag, anti-GFP and anti-NDPK-B antibodies (Kraeft et al., 1996; Exp Cell Res; 227:63-69) to normalize the results.
In order to better analyze the molecular mechanism of the inhibition of the NF-κB pathway by DR NLM peptide, the Inventors have developed an assay to probe NEMO oligomerization in cells as described in Example 1.I (see FIG. 5 for an overview of the cell-based assay). For this, two plasmids were used, expressing respectively GFP-NEMO and Flag-NEMO fusion proteins. The plasmids were cotransfected in human 293T cells to overexpress exogenous GFP-NEMO and Flag-NEMO fusion proteins and enforce NEMO oligomerization. The cells were then submitted to detergent lysis and Flag-NEMO proteins were immunopurified using anti-Flag agarose beads and Flag peptide as described in Example 1.I. The fluorescence associated with beads that results from an association of Flag-NEMO with GFP-NEMO subunits within hetero-oligomers allow an estimate of the amount of oligomers present in the cellular extracts.

[2] = target: T3, Lys63-linked polyubiquitin chains (Homo sapiens, UniProt P0CG47); assay: In vitro binding assay by fluorescence polarization to polyubiquitin chains; settings: tag-free peptide
T3 construct: the Lys63-linked polyubiquitin chains; purchased Boston Biochem

[3] = Circular dichroism and gel filtration, self-association of peptides; assay type: physicochemical; settings: peptide concentration up to 100 μM; data not shown
Procedure: Far-UV circular dichroism (CD) measurements were performed with an Aviv 215 spectropolarimeter with samples diluted in 10 mM NaPO4 at pH 7.
Then, unlike the LZ peptide, DR NLM peptide as well as NLM peptide are unable to self-associate. Self association of LZ peptide is described by Agou et al., 2004b.

[4] = target: T4, CC2-LZ interaction with cellular polyubiquitinylated proteins (Mus musculus, UniProt O88522); assay: Pull-down of polyubiquitinylated proteins from JM4.5.2 extracts with biotinylated CC2-LZ, anti-ubiquitin Western blot; assay type: biochemical; settings: 20 μM peptide, extracts of TNF-α stimulated JM4.5.2 cells
T4 construct: made in house; host or cells: chemical synthesis (bait); crude extract of JM4.5.2 cells with or without TNFα (partners)
Procedure: 24·10^7 JM4.5.2 cells were stimulated or not with 10 ng/ml of TNFα for 10 minutes at 37° C., washed twice with cold PBS and lysed in 900 μl of lysis buffer containing a protease inhibitor mixture as indicated in Example 1.D. Lysates were clarified at 15 000×g at 4° C. for 30 min. 150 μl of proteins were incubated 2 h at 4° C. with 150 μl of streptavidin magnetic beads (MagPrep®, Novagen) pre-incubated 1 h at 4° C. with 10 μg of biotynilated-CC2-LZ and with or without 20 μM of peptides (BA-NLM or BA-DR NLM). Beads were washed 4 times in buffer A (10 mM Hepes pH 7.5, 150 mM NaCl, 8 mM MgCl2, 10% glycerol, 0.1 mM DDM and 1 mM DTE) and resuspended in 30 μl of laemmli buffer containing 6 M Urea. Samples were analysed by Western blotting using anti-ubiquitin antibodies (Sigma) as well as anti-NDPK-B antibodies for loading controls.
Thus, the Inventors examined whether DR NLM impedes the interaction between NEMO and the K63 polyubiquitin chains. To this end, they developed a pull down assay which uses the a peptide comprising the CC2 and the LZ domains of NEMO as a bait to pull down the polyubiquitinylated proteins as described in Example 1.J and depicted in FIG. 7A. […] After extensive washing of beads, all mono and polyubiquitinylated proteins bound to CC2-LZ were analysed by Western blot using anti-ubiquitin antibody (Sigma).

NF-κB pathway = settings: cited from earlier work; for IC50 of inhibition of NF-κB activation: reported in WO2005/027959, Agou et al., 2004b

T2 sequence (O88522 with tags, fused parts or gaps A144V/E216G/S248N/P360T limits assumed): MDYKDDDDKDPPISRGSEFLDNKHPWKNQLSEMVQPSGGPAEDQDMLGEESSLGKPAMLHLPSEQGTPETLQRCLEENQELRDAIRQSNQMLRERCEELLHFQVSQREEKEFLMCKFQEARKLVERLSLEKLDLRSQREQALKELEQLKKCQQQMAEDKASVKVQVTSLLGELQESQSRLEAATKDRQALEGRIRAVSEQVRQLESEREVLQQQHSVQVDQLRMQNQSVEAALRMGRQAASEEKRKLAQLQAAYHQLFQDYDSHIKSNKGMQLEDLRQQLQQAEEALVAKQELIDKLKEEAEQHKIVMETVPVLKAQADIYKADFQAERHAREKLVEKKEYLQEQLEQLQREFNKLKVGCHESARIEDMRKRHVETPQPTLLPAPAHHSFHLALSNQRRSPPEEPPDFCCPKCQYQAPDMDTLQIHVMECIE
T1 sequence (O88522 253-336): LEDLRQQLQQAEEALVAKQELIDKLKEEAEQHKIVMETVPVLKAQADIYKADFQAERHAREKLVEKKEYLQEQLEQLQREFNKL
T4 sequence (O88522 253-336): as above

Compound: CC[C@H](C)[C@H](NC(=O)[C@H](CC(=O)O)NC(=O)[C@H](C)NC(=O)[C@H](CCC(N)=O)NC(=O)[C@H](C)NC(=O)[C@H](CCCCN)NC(=O)[C@H](CC(C)C)NC(=O)[C@H](CCCCN)NC(=O)[C@H](CCCCN)NC(=O)[C@H](Cc1c[nH]c2ccccc12)NC(=O)[C@H](CCCCN)NC(=O)[C@H](CCSC)NC(=O)[C@H](CCCNC(=N)N)NC(=O)[C@H](CCCNC(=N)N)NC(=O)[C@H](CC(N)=O)NC(=O)[C@H](CCC(N)=O)NC(=O)[C@H](Cc1ccccc1)NC(=O)[C@H](Cc1c[nH]c2ccccc12)NC(=O)[C@@H](NC(=O)[C@H](CCCCN)NC(=O)[C@@H](NC(=O)[C@H](CCC(N)=O)NC(=O)[C@H](CCCNC(=N)N)NC(=O)[C@H](CSC1CC(=O)N(CCNC(=O)CCC2=[N+]3C(=Cc4c(C)cc(C)n4[B-]3(F)F)C=C2)C1=O)NC(C)=O)[C@@H](C)CC)[C@@H](C)CC)C(=O)N[C@@H](Cc1ccc(O)cc1)C(=O)N[C@@H](CCCCN)C(=O)N[C@@H](C)C(=O)N[C@@H](CCCNC(=N)N)C(=O)N[C@@H](Cc1ccccc1)C(=O)N[C@@H](CCC(N)=O)C(=O)N[C@@H](C)C(=O)N[C@@H](CCC(=O)O)C(=O)N[C@@H](CCCNC(=N)N)C(=O)N[C@@H](Cc1c[nH]cn1)C(=O)N[C@@H](C)C(=O)N[C@@H](CCCNC(=N)N)C(=O)N[C@@H](CCC(=O)O)C(=O)N[C@@H](CCCCN)C(N)=O (stereo partly shown) [BA-DR NLM] (Ac-C(BODIPYFLEthylmaleimide)RQIKIWFQNRRMKWKKLKAQADIYKARFQAERHAREK-NH2; N-terminus and C-terminus assumed)
- Kd (spCC2-LZ (MOD of NEMO)): 17 µM
- amount of NEMO oligomers (fluorescent NEMO subunit recovered) [1]: same amount of NEMO oligomers in the absence or in the presence

Compound: CC[C@H](C)[C@H](NC(=O)[C@H](CC(=O)O)NC(=O)[C@H](C)NC(=O)[C@H](CCC(N)=O)NC(=O)[C@H](C)NC(=O)[C@H](CCCCN)NC(=O)[C@H](CC(C)C)NC(=O)[C@H](CCCNC(=N)N)NC(=O)[C@H](CCCNC(=N)N)NC(=O)[C@H](CCCNC(=N)N)NC(=O)[C@H](CCCNC(=N)N)NC(=O)[C@H](CCCNC(=N)N)NC(=O)[C@H](CCCNC(=N)N)NC(=O)[C@H](CCCNC(=N)N)NC(=O)[C@H](CSC1CC(=O)N(CCNC(=O)CCC2=[N+]3C(=Cc4c(C)cc(C)n4[B-]3(F)F)C=C2)C1=O)NC(C)=O)C(=O)N[C@@H](Cc1ccc(O)cc1)C(=O)N[C@@H](CCCCN)C(=O)N[C@@H](C)C(=O)N[C@@H](CCCNC(=N)N)C(=O)N[C@@H](Cc1ccccc1)C(=O)N[C@@H](CCC(N)=O)C(=O)N[C@@H](C)C(=O)N[C@@H](CCC(=O)O)C(=O)N[C@@H](CCCNC(=N)N)C(=O)N[C@@H](Cc1c[nH]cn1)C(=O)N[C@@H](C)C(=O)N[C@@H](CCCNC(=N)N)C(=O)N[C@@H](CCC(=O)O)C(=O)N[C@@H](CCCCN)C(N)=O (stereo partly shown) [BR7-DR NLM] (Ac-C(BODIPYFLEthylmaleimide)RRRRRRRLKAQADIYKARFQAERHAREK-NH2; N-terminus and C-terminus assumed)
- Kd (spCC2-LZ (MOD of NEMO)): 21 µM

Compound: CC[C@H](C)[C@H](NC(=O)[C@H](CC(=O)O)NC(=O)[C@H](C)NC(=O)[C@H](CCC(N)=O)NC(=O)[C@H](C)NC(=O)[C@H](CCCCN)NC(=O)[C@H](CC(C)C)NC(C)=O)C(=O)N[C@@H](Cc1ccc(O)cc1)C(=O)N[C@@H](CCCCN)C(=O)N[C@@H](C)C(=O)N[C@@H](CC(=O)O)C(=O)N[C@@H](Cc1ccccc1)C(=O)N[C@@H](CCC(N)=O)C(=O)N[C@@H](C)C(=O)N[C@@H](CCC(=O)O)C(=O)N[C@@H](CCCNC(=N)N)C(=O)N[C@@H](Cc1c[nH]cn1)C(=O)N[C@@H](C)C(=O)N[C@@H](CCCNC(=N)N)C(=O)N[C@@H](CCC(=O)O)C(=O)N[C@@H](CCCCN)C(N)=O [NLM] (Ac-LKAQADIYKADFQAERHAREK-NH2; N-terminus and C-terminus assumed)
- cooperativity index (Hill coefficient) n [2]: 8
- Kd ([2]; read-out: dissociation constant for Lys63-linked polyubiquitin chains): 180 µM
- oligomeric state / self-association [3]: behave as monomer
- inhibition of CC2-LZ interaction with polyubiquitinylated proteins [4]: no inhibition was observed
- inhibition of NF-κB activation (NF-κB pathway; reported in WO 2005/027959): inhibit NF-κB activation

Compound: BA-LZ L322P/L329P: BA-LZ bearing a double mutation within the coiled-coil interface, SEQ ID NO: 22 (C(Bodipy)RQIKIWFQNRRMKWKKLKAQADIYKADFQAERHAREKLVEKKEYPQEQLEQPQREFNKL; reading uncertain)
- amount of NEMO oligomers (fluorescent NEMO subunit recovered) [1]: no dissociation of NEMO oligomers was observed

Compound: BA-LZ: Bodipy-antennapedia tagged LZ peptide, SEQ ID NO: 4 (human 5) (C(Bodipy)RQIKIWFQNRRMKWKKLKAQADIYKADFQAERHAREKLVEKKEYLQEQLEQLQREFNKL; reading uncertain)
- amount of NEMO oligomers (fluorescent NEMO subunit recovered) [1]: strong decrease in the amount of fluorescent NEMO subunit

Compound: BA-NLM: NLM fused at N-terminus with antennapedia and conjugated with bodipy (C(Bodipy)RQIKIWFQNRRMKWKKLKAQADIYKADFQAERHAREK; reading uncertain)
- amount of NEMO oligomers (fluorescent NEMO subunit recovered) [1]: same amount of NEMO oligomers in the absence or in the presence

Compound: LKAQADIYKADFQAERHAREKLVEKKEYLQEQLEQLQREFNKL [spLZ]
- IC50 of inhibition of NF-κB activation (NF-κB pathway): in the μM range

Compound: SKGMQLEDLRQQLQQAEEALVAKQELIDKLKEEAEQHKIV [spCC2]
- IC50 of inhibition of NF-κB activation (NF-κB pathway): in the μM range
